Laboratory results from patent US20250228824A1, “COMPOSITIONS AND METHODS FOR INHIBITION OF ITO AS TREATMENT FOR THE J WAVE SYNDROMES AND HYPOTHERMIA” (Lankenau Institute for Medical Research, priority 2021, published 2025).

Legend:
[1] = system: coronary-perfused canine right (RV) and left (LV) ventricular wedge models of JWS; test: Coronary-perfused ventricular wedge models of the J wave syndromes (NS5806 alone or with verapamil); parameters: QT interval / T wave amplitude / Epi (APD50) / Epi (APD90): unit not given here
Description: Ten hearts from purpose-bred adult male mongrel dogs (20-22 kg) were acquired from Covance (Denver, PA) and another 10 hearts from purpose-bred adult male Beagle dogs (10-16 kg) were obtained from Envigo (Denver, PA). Dogs were sedated with ketamine (10 mg/kg, IM) and xylazine 2 (mg/kg, IM). Prior to euthanasia (Euthasol solution: pentobarbital sodium and phenytoin sodium; 0.22 ml/kg, IV), and heparin (human pharmaceutical grade, 1,000 U/kg, IV) were administered 3-4 min before isolation of the hearts via a left thoracotomy. Retrograde aortic perfusion of the hearts with ice-cold cardioplegic solution (modified K-H solution; 16 mM KCl) was immediately performed to rinse the coronary vasculature of blood. The hearts were then placed in a sealed container containing ice-cold cardioplegic solution and transported to our institution via private courier in an insulated package filled with icepacks.
Transmural wedges were dissected from the base of the RV and LV. During the cannulation procedure, preparations were initially arterially perfused with cardioplegic solution. Next, the wedge preparations were placed in a tissue bath and perfused with a modified Krebs-Henseleit solution (K—H) bubbled with 95% O2/5% CO2 warmed to 37° C. The composition of K—H was (in mM): 118 NaCl, 4 KCl, 2 CaCl2, 1.2 MgSO4, 24 NaHCO3, 1.2 NaH2PO4, 2 Na Pyruvate and 10 D-Glucose. The perfusate was delivered at a constant pressure (45-50 mmHg). A transmural pseudo-ECG (ECG) was recorded using two Ag/AgCl half cells placed at ˜1 cm from the Epi (+) and Endo (−) surfaces along the same axis as the transmembrane action potential (AP) recordings. APs were simultaneously recorded from the immediate sub-Epi and M cell region (˜2-3 mm from the Endo surface) using floating glass microelectrodes. Pacing was applied to the Endo surface using bipolar silver electrodes insulated except at the tips (Basic Cycle Lengths [BCLs]: 500-2,000 ms). A detailed description of the arterially-perfused ventricular wedge preparation has been previously published.^5 ECG and AP signals were digitized and analyzed using Spike 2 for Windows (Cambridge Electronic Design, Cambridge, UK).
We used the Ito-agonist NS5806 (5-10 μM) alone or with the calcium-channel blocker verapamil (2.5 μM) to pharmacologically mimic the effects of the ion channel genetic defects underlying ERS and BrS. These provocative agents were added to the coronary perfusate in increasing concentrations until the characteristic ECG phenotypes were unmasked, including phase 2 reentry (P2R), closely coupled premature beats (CCPBs) and/or pVT/VF. AR-787 was added to the perfusate to test its ability to suppress or prevent arrhythmogenesis.

[2] = high doses / high plasma levels; cited from earlier work
[3] = NS5806 5-10 μM, 3 LV wedges, BCL 800 msec

Row | SMILES | QT interval ([1]; AR-787 1, 10 or 50 μM, NS5806 5-10 μM, five wedges) | effect on phase 1 magnitude, AP notch and J wave ([1]; NS5806 5-10 μM in coronary perfusate) | Epi (APD50) [1, 3] | Epi (APD90) [1, 3] | J wave amplitude [1, 3] | M (APD50) [1, 3] | M (APD90) [1, 3] | Ph1 mag (% Ph0) [1, 3] | QT interval [1, 3] | T wave amplitude [1, 3] | patients developing serious GI side effects [2]
1 | O=C(Nc1cc(C(F)(F)F)cc(C(F)(F)F)c1)Nc1c(Br)cc(Br)cc1-c1nn[nH]n1 [NS5806, reference compound] | unaffected | increased the magnitude of phase 1 | 181.8 ± 10.4 | 215.6 ± 5.3 | 31.3 ± 4.6 | 179.5 ± 5.9 | 228.4 ± 7.7 | 40.2 ± 6.5 % Ph0 | 261.2 ± 4.5 | 17.8 ± 9.6 | 
2 | C=C[C@H]1C[N@@]2CC[C@H]1C[C@@H]2[C@@H](O)c1ccnc2ccc(OC)cc12 [quinidine] |  |  |  |  |  |  |  |  |  |  | approximately 50%
